Assay results taken from patent US6969711B2, “Cyclic diamine compounds and medicine containing the same” (Kowa Company, Ltd., priority 1997, dated 2005).

| Compound | melting point |
| --- | --- |
| COC(=O)c1cccc2oc(SCCCN3CCN(CC(=O)Nc4c(C(C)C)cccc4C(C)C)CC3)nc12 [Example 11, 2-[4-[3-(4-methoxycarbonylbenzoxazol-2-ylthio)propyl]piperazin-1-yl]-N-(2,6-diisopropylphenyl)acetamide] | 132 to 133 °C |
| CC(C)c1cccc(C(C)C)c1NC(=O)CN1CCN(CCCSc2nc3ncccc3o2)CC1 [Example 12, 2-[4-[3-(oxazolo[4,5-b]pyridine-2-ylthio)propyl]piperazin-1-yl]-N-(2,6-diisopropylphenyl)acetamide] | 125 to 127 °C |
| COC(=O)c1cccc2nc(SCCCN3CCCN(CC(=O)Nc4c(C(C)C)cccc4C(C)C)CC3)oc12 [Example 14, 2-[4-[3-(7-methoxycarbonylbenzoxazol-2-ylthio)propyl]homopiperazin-1-yl]-N-(2,6-diisopropylphenyl)acetamide] | 83 to 85 °C |
| CC(C)c1cccc(C(C)C)c1NC(=O)CN1CCCN(CCCSc2nc3ncccc3o2)CC1 [Example 15, 2-[4-[3-(oxazolo[4,5-b]pyridin-2-ylthio)propyl]homopiperazin-1-yl]-N-(2,6-diisopropylphenyl)acetamide] | 73 to 75 °C |
| CCCCCCCN(CCN1CCN(CCSc2nc3ccccc3o2)CC1)C(=O)Nc1c(C(C)C)cccc1C(C)C [Example 16, N-[2-[4-[2-(benzoxazol-2-ylthio)ethyl]piperazin-1-yl]ethyl]-N′-(2,6-diisopropylphenyl)-N-heptylurea] | 110 to 111 °C |
| CCCCCCCN(CCN1CCN(CCSc2nc3cccc(C(=O)OC)c3o2)CC1)C(=O)Nc1c(C(C)C)cccc1C(C)C [Example 17, N′-(2,6-diisopropylphenyl)-N-heptyl-N-[2-[4-[2-(7-methoxycarbonylbenzoxazol-2-ylthio)-ethyl]piperazin-1-yl]ethyl]urea] | 125 to 126 °C |
| CC(C)c1cccc(C(C)C)c1NC(=O)CCN1CCN(CCCSc2nc3ccccc3o2)CC1 [Example 23, 3-[4-[3-(benzoxazol-2-ylthio)propyl]piperazin-1-yl]-N-(2,6-diisopropylphenyl)propanamide] | 93 to 95 °C |
| CSc1cc(C)nc(SC)c1NC(=O)CCN1CCN(CCSc2nc3ccccc3o2)CC1 [Example 27, 3-[4-[2-(benzoxazol-2-ylthio)ethyl]piperazin-1-yl]-N-[2,4-bis(methylthio)-6-methyl-3pyridyl]propanamide] | 110 to 112 °C |
| CSc1cc(C)nc(SC)c1NC(=O)CN1CCN(CCCSc2nc3ccccc3o2)CC1 [Example 28, 2-[4-[3-(benzoxazol-2-ylthio)propyl]piperazin-1-yl]-N-[2,4-bis(methylthio)-6-methyl-3-pyridyl]acetamide] | 160 to 161 °C |
| COC(=O)c1cccc2nc(SCCCN3CCN(CC(=O)Nc4c(SC)cc(C)nc4SC)CC3)oc12 [Example 30, N-[2,4-bis(methylthio)-6-methyl-3pyridyl)-2-[4-[3-(7-methoxycarbonylbenzoxazol-2-ylthio)propyl]piperazin-1-yl]acetamide] | 76 to 79 °C |
| CSc1cc(C)nc(SC)c1NC(=O)CN1CCN(CCSc2nc3ccccc3s2)CC1 [Example 31, 2-[4-[2-(benzothiazol-2-ylthio)ethyl]piperazin-1-yl]-N-(2,4-bis(methylthio)-6-methyl-3-pyridyl)acetamide] | 136 to 139 °C |
| CCSc1cc(C)nc(SCC)c1NC(=O)CN1CCN(CCSc2nc3ccccc3o2)CC1 [Example 34, 2-[4-[2-(benzoxazol-2-ylthio)ethyl]piperazin-1-yl]-N-[2,4-bis(ethylthio)-6-methyl-3-pyridyl]acetamide] | 108 to 109 °C |
| CCSc1cc(C)nc(SCC)c1NC(=O)CN1CCN(CCSc2nc3cccc(C(=O)OC)c3o2)CC1 [Example 35, 2-[4-[2-(7-methoxycarbonylbenzoxazol-2-ylthio)ethyl]piperazin-1-yl]-N-[2,4-bis(ethylthio)-6methyl-3-pyridyl)acetamide] | 118 to 119 °C |
| Cc1cc(SC(C)C)c(NC(=O)CN2CCN(CCSc3nc4ccccc4[nH]3)CC2)c(SC(C)C)n1 [Example 37, 2-[4-[2-(benzimidazol-2-ylthio)ethyl]piperazin-1-yl]-N-(2,4-bis(isopropylthio)-6-methyl-3-pyridyl)acetamide] | 186 to 188 °C |
| COC(=O)c1cccc2nc(SCCN3CCN(CC(=O)Nc4c(SC(C)C)cc(C)nc4SC(C)C)CC3)oc12 [Example 39, N-[2,4-bis(isopropylthio)-6-methyl-3-pyridyl]-2-[4-[2-(7-methoxycarbonylbenzoxazol-2-ylthio)ethyl]piperazin-1-yl]acetamide] | 60 to 63 °C |
| COc1cc(C)nc(OC)c1NC(=O)CN1CCN(CCSc2nc3ccccc3o2)CC1 [Example 45, 2-[4-[2-(benzoxazol-2-ylthio)ethyl]piperazin-1-yl]-N-[2,4-dimethoxy-6-methyl-3-pyridyl)acetamide] | 113 to 115 °C |
| CSc1ncnc(SC)c1NC(=O)CN1CCN(CCSc2nc3ccccc3o2)CC1 [Example 46, 2-[4-[2-(benzoxazol-2-ylthio)ethyl]piperazin-1-yl]-N-[4,6-bis(methylthio)-5-pyrimidyl)acetamide] | 171 to 172 °C |

| Compound | melting point |
| --- | --- |
| Cc1cc(C)c(NC(=O)CN2CCN(CCSc3nc4ccccc4o3)CC2)c(C)n1 [Example 47, 2-[4-[2-(benzoxazol-2-ylthio)ethyl]piperazin-1-yl]-N-(2,4,6-trimethyl-3-pyridyl)acetamide] | 159 to 160 °C |
| CC(C)c1cc(C(C)C)c(NC(=O)CN2CCN(CCSc3nc4ccccc4o3)CC2)c(C(C)C)c1 [Example 48, 2-[4-[2-(benzoxazol-2-ylthio)ethyl]piperazin-1-yl]-N-(2,4,6-triisopropylphenyl)acetamide] | 160 to 163 °C |
| CC(C)c1cc(C(C)C)c(NC(=O)CN2CCN(CCSc3nc4ccccc4[nH]3)CC2)c(C(C)C)c1 [Example 49, 2-[4-[2-(benzimidazol-2-ylthio)ethyl]piperazin-1-yl]-N-(2,4,6-triisopropylphenyl)acetamide] | 217 to 218 °C |
| CC(C)c1cc(C(C)C)c(NC(=O)CN2CCN(CCCSc3nc4ccccc4s3)CC2)c(C(C)C)c1 [Example 55, 2-[4-[3-(benzothiazol-2-ylthio)propyl]piperazin-1-yl]-N-(2,4,6-triisopropylphenyl)acetamide] | 107 to 108 °C |
| CC(C)c1ccc([N+](=O)[O-])c(C(C)C)c1NC(=O)CN1CCN(CCSc2nc3ccccc3o2)CC1 [Example 58, 2-[4-[2-(benzoxazol-2-ylthio)ethyl]piperazin-1-yl]-N-(2,6-diisopropyl-3-nitrophenyl)acetamide] | 143 to 145 °C |
| CC(C)c1ccc(N(C)C)c(C(C)C)c1NC(=O)CN1CCN(CCSc2nc3ccccc3o2)CC1 [Example 59, 2-[4-[2-(benzoxazol-2-ylthio)ethyl]piperazin-1-yl]-N-(2,6-diisopropyl-3-dimethylaminophenyl)acetamide] | 159 to 161 °C |
| CSc1ccc(C(C)C)c(NC(=O)CN2CCN(CCSc3nc4ccccc4o3)CC2)c1C(C)C [Example 60, 2-[4-[2-(benzoxazol-2-ylthio)ethyl]piperazin-1-yl]-N-[2,6-diisopropyl-3-(methylthio)phenyl]acetamide] | 148 to 150 °C |
| CC(C)c1ccc(O)c(C(C)C)c1NC(=O)CN1CCN(CCSc2nc3ccccc3o2)CC1 [Example 61, 2-[4-[2-(benzoxazol-2-ylthio)ethyl]piperazin-1-yl]-N-(2,6-diisopropyl-3-hydroxyphenyl)acetamide] | 96 to 98 °C |
| CC(C)c1ccc(OS(C)(=O)=O)c(C(C)C)c1NC(=O)CN1CCN(CCSc2nc3ccccc3o2)CC1 [Example 62, 2-[4-[2-(benzoxazol-2-ylthio)ethyl]-piperazin-1-yl]-N-(2,6-diisopropyl-3-mesyloxyphenyl)acetamide] | 164 to 166 °C (dec.) |
| CC(=O)Oc1ccc(C(C)C)c(NC(=O)CN2CCN(CCSc3nc4ccccc4o3)CC2)c1C(C)C [Example 63, 2-[4-[2-(benzoxazol-2-ylthio)ethyl]piperazin-1-yl]-N-(2,6-diisopropyl-3-acetyloxyphenyl)acetamide] | 129 to 131 °C |
| CCOCCOc1ccc(C(C)C)c(NC(=O)CN2CCN(CCSc3nc4ccccc4o3)CC2)c1C(C)C [Example 65, 2-[4-[2-(benzoxazol-2-ylthio)ethyl]piperazin-1-yl]-N-[2,6-diisopropyl-3-(2-ethoxyethyloxy)phenyl)acetamide] | 100 to 103 °C |
| CC(C)c1cc([N+](=O)[O-])c(O)c(C(C)C)c1NC(=O)CN1CCN(CCSc2nc3ccccc3o2)CC1 [Example 66, 2-[4-[2-(benzoxazol-2-ylthio)ethyl]piperazin-1-yl]-N-(2,6-diisopropyl-3-hydroxy-4-nitrophenyl)acetamide] | 139 to 141 °C |
| CC(C)c1ccc([N+](=O)[O-])c(C(C)C)c1NC(=O)CN1CCN(CCCSc2nc3ccccc3o2)CC1 [Example 67, 2-[4-[3-(benzoxazol-2-ylthio)propyl]piperazin-1-yl]-N-(2,6-diisopropyl-3-nitrophenyl)acetamide] | 156 to 158 °C |
| CSc1ccc(C(C)C)c(NC(=O)CN2CCN(CCCSc3nc4ccccc4o3)CC2)c1C(C)C [Example 68, 2-[4-[3-(benzoxazol-2-ylthio)propyl]piperazin-1-yl]-N-[2,6-diisopropyl-3-(methylthio)phenyl]acetamide] | 126 to 127 °C |
| COc1ccc(C(C)C)c(NC(=O)CN2CCN(CCCSc3nc4ccccc4o3)CC2)c1C(C)C [Example 70, 2-[4-[3-(benzoxazol-2-ylthio)propyl]piperazin-1-yl]-N-(2,6-diisopropyl-3-methoxyphenyl)acetamide] | 105 to 107 °C |
| CCOCCOc1ccc(C(C)C)c(NC(=O)CN2CCN(CCCSc3nc4ccccc4o3)CC2)c1C(C)C [Example 71, 2-[4-[3-(benzoxazol-2-ylthio)propyl]piperazin-1-yl]-N-[2,6-diisopropyl-3-(2-ethoxyethyloxy)phenyl]acetamide] | 99 to 100 °C |
| CC(C)c1cc(O)cc(C(C)C)c1NC(=O)CN1CCN(CCSc2nc3ccccc3o2)CC1 [Example 72, 2-[4-[2-(benzoxazol-2-ylthio)ethyl]piperazin-1-yl]-N-(2,6-diisopropyl-4-hydroxyphenyl)acetamide] | 162 to 164 °C |
